Columns and labels:
[1] = system: human PMN leukocytes; assay: PMN migration (chemotaxis chamber, FMLP); format: cell-based; conditions: 2 ug/ml, mean ± SD
Procedure: Microalgal polysaccharide materials were tested for their ability to influence the migration of polymorphonucelar (PMN) leukocytes in response to chemotractant substances. Leukocyte migration is essential for leukocyte accumulation at sites of inflammation. During the inflammatory response, leukocytes migrate towards the source of a chemotractant substance in a process called chemotaxis. In vitro methods to study chemotaxis often use a membrane based approach, where a chemoattractant is placed on one side of a membrane and PMN leukocytes are placed on the other. Chemotaxis is then measured by quantifying the number of leukocytes which then migrate through the filter towards the chemotractant substance.
For this study, human PMN leukocytes were isolated via density centrifugation from freshly drawn blood. The PMN cells were loaded with a Calcein AM, a fluorescent dye. […] The chemotaxis chamber was be incubated and at the end of the incubation period the fluorescence of the bottom wells was read and used as an index of PMN migration. […]
Heparinized whole blood (20-30 ml) was collected from a healthy human donor, layered over a density gradient (Histopaque 1077 and Histopaque 1119) and centrifuged at 400 g for 30 min. […] After the incubation, the PMN cells were washed twice with PBS, counted and resuspended in RPMI-FCS at 1-5×10^6 cells/ml. […]

[2] = system: elastase; assay: Anti-elastase assay (fibroblast lysate, STANA substrate); format: biochemical, human; conditions: 100 μM
Procedure: Human dermal fibroblasts were cultured and used as a source of the elastase enzyme. This enzyme was be partially purified from the fibroblasts by lysing the cells in an elastase buffer and retaining the soluble portion of the lysate. Portions of this fibroblast lysate were then be incubated with test materials a synthetic elastase substrate, Suc-(Ala3)-p-Nitroaniline (STANA). Elastase acts upon this substrate to release p-nitroaniline, which is detected with a spectrophotometer by measuring the absorbance at a wavelength of 405 nm. An inhibition of the elastase enzyme is identified by a decrease in the amount of released p-nitroaniline when compared to uninhibited enzyme.
Test material BM was supplied as a powder. 100 mg of BM was combined with either 5 ml of ethanol or 5 ml of ultrapure water in 15 ml centrifuge tubes. […]
After measuring the protein concentration of the lysate, a small sample was obtained and the elastase activity of the lysate was determined at 100%, 50% and 25% concentrations using 2× elastase buffer to make the dilutions. […] After the incubation the well plate was read at 405 nm using a microplate reader. The mean absorbance for each concentration of the lysate was plotted versus its respective concentration. […]

Row | Percent Inhibition [2] | Structure (SMILES) | Percent of Maximal Migration [1]
1 |  | C[C@@H]1[C@H](O)[C@@H](C)/C=C/C=C/C=C/C=C/C=C/C=C/C=C/[C@H](O[C@@H]2O[C@H](C)[C@@H](O)[C@H](N)[C@@H]2O)C[C@@H]2O[C@](O)(C[C@@H](O)C[C@@H](O)[C@H](O)CC[C@@H](O)C[C@@H](O)CC(=O)O[C@H]1C)C[C@H](O)[C@H]2C(=O)O [Amphotericin B] | 9.4 ± 0.6%
2 | 94% | CC(C)C[C@H](NP(=O)(O)O[C@@H]1O[C@@H](C)[C@H](O)[C@@H](O)[C@H]1O)C(=O)N[C@@H](Cc1c[nH]c2ccccc12)C(=O)O [Phosphoramidon] | 

From patent publication US10231907B2, “Compositions for improving the health and appearance of skin” (Algenist Holdings, Inc., priority 2006, dated 2019)
